Data published in US20200267980A1, “Herbicidally Active Pyridyl-/Pyrimidyl-Pyrimidine Derivatives” (Syngenta Participations AG, priority 2017, published 2020).

What was measured:
Format in all cases: in vivo
[1] = system: Setaria faberi (SETFA); test: Pre-emergence herbicidal activity, glasshouse pot test; design: key: 5=total damage to plant; 0=no damage to plant; settings: 1000 g/ha, pre-emergence spray, evaluated after 13 days, damage score 0-5
Description: (§1) Seeds of a variety of test species were sown in standard soil in pots: Triticum aestivium (TRZAW), Avena fatua (AVEFA), Alopecurus myosuroides (ALOMY), Echinochloa crus-galli (ECHCG), Lolium perenne (LOLPE), and Setaria faberi (SETFA). After cultivation for one day (pre-emergence) under controlled conditions in a glasshouse (at 24/16° C., day/night; 14 hours light; 65% humidity), the plants were sprayed with an aqueous spray solution derived from the formulation of the technical active ingredient in acetone/water (50:50) solution containing 0.5% Tween 20 (polyoxyethelyene sorbitan monolaurate, CAS RN 9005-64-5). The test plants were then grown in a glasshouse under controlled conditions (at 24/16° C., day/night; 14 hours light; 65% humidity) and watered twice daily. After 13 days, the test was evaluated (5=total damage to plant; 0=no damage to plant).

[2] = system: Lolium perenne (LOLPE); test: as above; design: key: 5=total damage to plant; 0=no damage to plant; settings: 1000 g/ha, pre-emergence spray, evaluated after 13 days, damage score 0-5
Description: as §1

[3] = system: Echinochloa crus-galli (ECHCG); test: as above; design: key: 5=total damage to plant; 0=no damage to plant; settings: 1000 g/ha, pre-emergence spray, evaluated after 13 days, damage score 0-5
Description: as §1

[4] = system: Alopecurus myosuroides (ALOMY); test: as above; design: key: 5=total damage to plant; 0=no damage to plant; settings: 1000 g/ha, pre-emergence spray, evaluated after 13 days, damage score 0-5
Description: as §1

[5] = system: Avena fatua (AVEFA); test: as above; design: key: 5=total damage to plant; 0=no damage to plant; settings: 1000 g/ha, pre-emergence spray, evaluated after 13 days, damage score 0-5
Description: as §1

[6] = system: Triticum aestivium (TRZAW); test: as above; design: key: 5=total damage to plant; 0=no damage to plant; settings: 1000 g/ha, pre-emergence spray, evaluated after 13 days, damage score 0-5
Description: as §1

[7] = system: Setaria faberi (SETFA); test: Post-emergence herbicidal activity, glasshouse pot test; design: key: 5=total damage to plant; 0=no damage to plant; settings: 1000 g/ha, post-emergence spray after 8 days cultivation, evaluated after 13 days, damage score 0-5
Description: (§2) Seeds of a variety of test species were sown in standard soil in pots: Triticum aestivium (TRZAW), Avena fatua (AVEFA), Alopecurus myosuroides (ALOMY), Echinochloa crus-galli (ECHCG), Lolium perenne (LOLPE), and Setaria faberi (SETFA). After 8 days cultivation (post-emergence) under controlled conditions in a glasshouse (at 24/16° C., day/night; 14 hours light; 65% humidity), the plants were sprayed with an aqueous spray solution derived from the formulation of the technical active ingredient in acetone/water (50:50) solution containing 0.5% Tween 20 (polyoxyethelyene sorbitan monolaurate, CAS RN 9005-64-5). The test plants were then grown in a glasshouse under controlled conditions (at 24/16° C., day/night; 14 hours light; 65% humidity) and watered twice daily. After 13 days, the test was evaluated (5=total damage to plant; 0=no damage to plant).

[8] = system: Lolium perenne (LOLPE); test: as above; design: key: 5=total damage to plant; 0=no damage to plant; settings: 1000 g/ha, post-emergence spray after 8 days cultivation, evaluated after 13 days, damage score 0-5
Description: as §2

[9] = system: Echinochloa crus-galli (ECHCG); test: as above; design: key: 5=total damage to plant; 0=no damage to plant; settings: 1000 g/ha, post-emergence spray after 8 days cultivation, evaluated after 13 days, damage score 0-5
Description: as §2

[10] = system: Alopecurus myosuroides (ALOMY); test: as above; design: key: 5=total damage to plant; 0=no damage to plant; settings: 1000 g/ha, post-emergence spray after 8 days cultivation, evaluated after 13 days, damage score 0-5
Description: as §2

[11] = system: Triticum aestivium (TRZAW); test: as above; design: key: 5=total damage to plant; 0=no damage to plant; settings: 1000 g/ha, post-emergence spray after 8 days cultivation, evaluated after 13 days, damage score 0-5
Description: as §2

[12] = system: Avena fatua (AVEFA); test: as above; settings: 1000 g/ha, post-emergence spray after 8 days cultivation, evaluated after 13 days, damage score 0-5
Description: as §2

Structure (SMILES)	Control of weed species after pre-emergence application, SETFA [1]	Control of weed species after pre-emergence application, LOLPE [2]	Control of weed species after pre-emergence application, ECHCG [3]	Control of weed species after pre-emergence application, ALOMY [4]	Control of weed species after pre-emergence application, AVEFA [5]	Control of weed species after pre-emergence application, TRAZW [6]	Control of weed species after post-emergence application, SETFA [7]	Control of weed species after post-emergence application, LOLPE [8]	Control of weed species after post-emergence application, ECHCG [9]	Control of weed species after post-emergence application, ALOMY [10]	Control of weed species after post-emergence application, TRAZW [11]	Control of weed species after post-emergence application, AVEFA [12]
N#CCN(C(=O)C1CC1)c1cnc(-c2cncc(F)c2)nc1C(F)(F)F [Compound F30]	4	2	3	0	2	1	5	2	4	1	1	2
O=C(Nc1cnc(-c2cncc(F)c2)nc1C(F)(F)F)C1CCCCC1 [Compound F27]	0	0	0	0	0	0	2	0	3	0	0	1
Cc1ccc(C(=O)Nc2cnc(-c3cncc(F)c3)nc2C(F)(F)F)cc1 [Compound F25]	4	0	3	0	0	0	4	1	5	0	0	2
CCC(=O)N(C(=O)CC)c1cnc(-c2cncc(F)c2)nc1C(F)(F)F [Compound F7]	2	1	2	0	1	0	4	2	5	1	1	2
CC(C)=CC(=O)Nc1cnc(-c2cncc(F)c2)nc1C(F)(F)F [Compound F24]	5	1	2	0	1	1	4	1	5	1	1	3
CC(=O)Nc1cnc(-c2cncnc2)nc1C(F)(F)F [Compound F31]	4	1	4	1	2	1	4	2	4	1	1	3
CCCC(=O)Nc1cnc(-c2cncc(F)c2)nc1C(F)(F)F [Compound F33]	4	0	4	0	1	1	5	2	4	1	1	3
O=C(CCC1CCCC1)Nc1cnc(-c2cncc(F)c2)nc1C(F)(F)F [Compound F19]	4	1	4	0	1	1	4	1	4	0	0	2
O=C(Nc1cnc(-c2cncc(F)c2)nc1C(F)(F)F)c1cccs1 [Compound F9]	4	1	2	0	1	0	4	2	4	0	1	2
